Test results as given in patent US5580897A, “1,2-dithiins having antifungal activity” (Shaman Pharmaceuticals, Inc., priority 1995, dated 1996).
In brackets after ≈: the same amount, converted by molar mass.

Legend:
[1] = test system: Candida albicans B311 (B311); test: in vitro antifungal activity, minimum inhibitory concentration; assay type: cell-based
From the text: (§1) Additionally, two 1,2-dithiin compounds, 3-(hydroxymethyl)-6-[N-hydroxyiminomethyl]-1,2-dithiin and 3,6-[bis(N-hydroxyiminomethyl)]-1,2-dithiin, were chosen as compounds representative of the 1,2-dithiin class to be tested against a variety of fungi: Candida albicans A-26 (A-26), Candida albicans B311 (B311), Candida krusei GK7831 (CK), Candida parapsilosis CP18 (CP), Candida tropicalis 1525 (CT), Cryptococcus neoformans MI-106 (MI-106), Aspergillus fumigatus WM-1 (WM-1) and Trichophyton rubrum ATCC18762 (TR). The minimum inhibitory concentration (MIC) for 3-(hydroxymethyl)-6-[N-hydroxyiminomethyl]-1,2-dithiin and 3,6-[bis(N-hydroxyiminomethyl)]-1,2-dithiin are shown below in Table II.
(§2) The method used to determine in vitro antifungal activity is discussed in McGinnis, M. R., Laboratory Handbook of Medical Mycology, Academic Press, New York, London, p. 661 (1980); and Drouget, E.; Dupont, B.; Improvist, L.; Vivian, M. A.; and Tortorano, A. M.; "Disc Agar Diffusion and Microplate Automatized Techniques for In Vitro Evaluation of Antifungal Agents on Yeast and Sporulated Pathogenic Fungi" in In Vitro and In Vivo Evaluation of Antifungal Agents, Eds. lwata, K. and Vanden Bossche, H., Elsevier Science Publishers, New York, Oxford, p. 303 (1986).

[2] = test system: Candida tropicalis 1525 (CT); test: as above; assay type: cell-based; conditions: Candida tropicalis 1525, in vitro
From the text: as §1, §2

[3] = test system: Candida albicans A-26 (A-26); test: as above; assay type: cell-based; conditions: Candida albicans A-26, in vitro
From the text: as §1, §2

[4] = test system: Candida krusei GK7831 (CK); test: as above; assay type: cell-based; conditions: Pichia kudriavzevii
From the text: as §1, §2

[5] = test system: Trichophyton rubrum ATCC18762 (TR); test: as above; assay type: cell-based
From the text: as §1, §2

[6] = test system: Candida parapsilosis CP18 (CP); test: as above; assay type: cell-based; conditions: Lodderomyces parapsilosis
From the text: as §1, §2

[7] = test system: Aspergillus fumigatus WM-1 (WM-1); test: as above; assay type: cell-based; conditions: Aspergillus fumigatus WM-1, in vitro
From the text: as §1, §2

[8] = test system: Cryptococcus neoformans MI-106 (MI-106); test: as above; assay type: cell-based; conditions: Cryptococcus neoformans MI-106, in vitro
From the text: as §1, §2

[9] = test system: Aspergillus fumigatus ATCC13073 (AF); test: as above; assay type: cell-based
Description: (§3) The antifungal activities of representative 1,2-dithiin compounds listed below were determined in vitro using three fungal cultures: Candida albicans ATCC10259 (CA), Cryptococcus neoformans ATCC36556 (CN), and Aspergillus fumigatus ATCC13073 (AF).
as §2

[10] = test system: Cryptococcus neoformans ATCC36556 (CN); test: as above; assay type: cell-based
Description: as §3, §2

[11] = test system: Candida albicans ATCC10259 (CA); test: as above; assay type: cell-based
Description: as §3, §2

fungi = conditions: natural products, literature; cited from earlier work
virus = conditions: literature; cited from earlier work
[12] = literature; cited from earlier work

Compound	MIC [9] [µg/mL]	MIC [10] [µg/mL]	MIC [11] [µg/mL]	further results
C=CC#CC#CC1=CC=C(C#CC)SS1 [Thiarubrine A]	–	–	–	antifungal activity (fungi): possess both antifungal and antiviral activity; antiviral activity (virus): possess both antifungal and antiviral activity; cytotoxicity [12]: cytotoxic
O=CC1=CC=C(CO)SS1 [3-(Hydroxymethyl)-6-formyl-1,2-dithiin, 3-(Hydroxymethyl)-6-aldehydyl-1,2-dithiin]	25 (≈ 143 µM)	6.3 (≈ 36.2 µM)	12.5 (≈ 71.7 µM)	–
COC(=O)/C=C/C1=CC=C(CO)SS1 [3-(Hydroxymethyl)-6-[methyl propenoate-3-yl]-1,2-dithiin]	6.3 (≈ 27.4 µM)	6.3 (≈ 27.4 µM)	6.3 (≈ 27.4 µM)	–
O=CC1=CC=C(C=O)SS1 [3-6-Bis(formyl)-1,2-dithiin, 3,6-Bis(formyl)-1,2-dithiin]	6.3 (≈ 36.6 µM)	1.6 (≈ 9.29 µM)	1.6 (≈ 9.29 µM)	–
N#C/C=C/C1=CC=C(CO)SS1 [3-(Hydroxymethyl)-6-[2-cyanoethene-1-yl]-1,2-dithiin]	6.3 (≈ 31.9 µM)	3.1 (≈ 15.7 µM)	12.5 (≈ 63.4 µM)	–
CCOC(=O)/C=C/C1=CC=C(CO)SS1 [3-(Hydroxymethyl)-6-[ethyl propenoate-3-yl]-1,2-dithiin]	25 (≈ 102 µM)	6.3 (≈ 25.8 µM)	12.5 (≈ 51.2 µM)	–

The next lines start with results.

MIC [9] [µg/mL]	MIC [10] [µg/mL]	MIC [11] [µg/mL]	Compound	further results
0.4 (≈ 1.98 µM)	0.8 (≈ 3.96 µM)	0.1 (≈ 0.494 µM)	ON=CC1=CC=C(C=NO)SS1 [3,6-[Bis(N-hydroxyiminomethyl)]-1,2-dithiin]	MIC [1]: 0.1 µg/mL (≈ 0.494 µM); MIC [2]: 1.6 µg/mL (≈ 7.91 µM); MIC [3]: 0.2 µg/mL (≈ 0.989 µM); MIC [4]: 6.3 µg/mL (≈ 31.1 µM); MIC [5]: 0.05 µg/mL (≈ 0.247 µM); MIC [6]: 0.2 µg/mL (≈ 0.989 µM); MIC [7]: 0.2 µg/mL (≈ 0.989 µM); MIC [8]: 1.6 µg/mL (≈ 7.91 µM)
6.3 (≈ 31 µM)	6.3 (≈ 31 µM)	6.3 (≈ 31 µM)	CON=CC1=CC=C(CO)SS1 [3-(Hydroxymethyl)-6-[N-methoxyiminomethyl]-1,2-dithiin]	–
6.3 (≈ 27.4 µM)	1.6 (≈ 6.95 µM)	0.8 (≈ 3.47 µM)	CON=CC1=CC=C(C=NOC)SS1 [3,6-Bis[N-methoxyiminomethyl]-1,2-dithiin]	–
1.6 (≈ 8.45 µM)	1.6 (≈ 8.45 µM)	1.6 (≈ 8.45 µM)	OCC1=CC=C(C=NO)SS1 [3-(Hydroxymethyl)-6-[N-hydroxyiminomethyl]-1,2-dithiin]	MIC [1]: 1.6 µg/mL (≈ 8.45 µM); MIC [2]: 6.3 µg/mL (≈ 33.3 µM); MIC [3]: 1.6 µg/mL (≈ 8.45 µM); MIC [4]: 6.3 µg/mL (≈ 33.3 µM); MIC [5]: 0.8 µg/mL (≈ 4.23 µM); MIC [6]: 3.1 µg/mL (≈ 16.4 µM); MIC [7]: 1.6 µg/mL (≈ 8.45 µM); MIC [8]: 1.6 µg/mL (≈ 8.45 µM)
0.8 (≈ 4.67 µM)	0.8 (≈ 4.67 µM)	0.8 (≈ 4.67 µM)	N#CC1=CC=C(CO)SS1 [3-(Hydroxymethyl)-6-cyano-1,2-dithiin]	–
